The results in this text go back to patent US6749840B2, “Inhibition of pigmentation by inhibition of fatty acid synthase” (New York University, priority 2001, dated 2004).

This experiment has as its system Melan-a melanocytes. Kind of experiment: Assay for melanin production in melan-a melanocytes (absorbance of melanin at 490 nm per protein). Format: cell-based, mice. The following applies: at 3 μM; average; results of FIG. 1. As to the method: Melan-a melanocytes (α/α, P/P), an immortalized melanocyte line derived from C57BLI6J mice wild type at the p locus (Bennett et al. (1987), Int. J. Cancer 39:414-418), were incubated in Dulbecco's modification of Eagle's medium (DMEM: 10% fetal calf serum, 2 mM L-glutamine, 1 mM sodium pyruvate, 1% MEM non-essential amino acids 100×, […]). Immediately before using the medium, tetradecanoyl phorbol acetate (TPA) was added at 200 nM. Cells were seeded in T-25 flasks with 4×10^4 cells/ml×4.5 ml/flask (10-20% confluent) and were grown at 37° C. with 5% CO2. Twenty-four hours later, a compound to be tested (diluted in 0.5 ml media) was added to the media. Forty-eight hours after the addition of drug, both the media and drug were changed. Cells were harvested after an additional 48 or 72 hours (100% confluent). In harvesting the cells, the reagents and cells were kept at 4° C. Briefly, the media was removed from the cells, and one milliliter of media was reserved if needed for the tyrosinase assay. The cells were then rinsed with approximately 500 μl cold 1×phosphate buffered saline (PBS) until the PBS rinse was clear. […] 2 N NaOH in 20% DMSO was used as a blank, and the samples were read at a wavelength of 490 nm. The data were reported as absorbance of melanin per protein calculated for the total sample. […]

As to `C/C=C/C/C=C/CCC(=O)[C@H]1O[C@H]1C(N)=O` [cerulenin, [2R,3S]-2,3-epoxy-4-oxo-7,10-trans, trans-dodecanoic acid amide], the “decrease of pigmentation in melan-a melanocytes” value stood at 50%.
